# Measured values reported in BindingDB's records for patent US20260049071 (Beyang Therapeutics Co., 2026).
# pIC50: −log10 of the molar value.
# Tests used:
# Assay in all cases: Testing of the Ability of Compounds to Inhibit VEGFR and EGFR Kinase
# [1] = biological target: Vascular endothelial growth factor receptor 1 (Homo sapiens, UniProt P17948)
# Experimental: (§1) This assay directly monitored the ability of compounds to inhibit kinase phosphorylation by measuring non-phosphorylated and phosphorylated substrates in kinase reactions by using Mobility Shift Assays/IMAP™ analysis. Test Protocol and Procedures: Add the kinase and DTT to 1× kinase buffer to form a 2.5× kinase solution; transfer 10 μL of 2.5× kinase solution to a 384-well reaction plate and add 1× kinase buffer to negative control wells. Incubate the plate for 10 min at room temperature; add FAM-labeled peptides, MgCl2, ATP and other reagents to 1× kinase buffer to form a 2.5× substrate solution; transfer 10 μL of the above 2.5× substrate solution to the 384-well reaction plate; incubate the plate at 28° C. for different times,and add 25 μL of stop solution to the 384-well reaction plate to stop the reaction. Read the conversion ratio data on CaliperEZ Reader II.
# [2] = biological target: Vascular endothelial growth factor receptor 3 (Homo sapiens, UniProt P35916)
# Experimental: as §1
# [3] = biological target: Epidermal growth factor receptor (Homo sapiens, UniProt P00533)
# Experimental: as §1
# Sequence of Vascular endothelial growth factor receptor 3 (P35916 whole entry): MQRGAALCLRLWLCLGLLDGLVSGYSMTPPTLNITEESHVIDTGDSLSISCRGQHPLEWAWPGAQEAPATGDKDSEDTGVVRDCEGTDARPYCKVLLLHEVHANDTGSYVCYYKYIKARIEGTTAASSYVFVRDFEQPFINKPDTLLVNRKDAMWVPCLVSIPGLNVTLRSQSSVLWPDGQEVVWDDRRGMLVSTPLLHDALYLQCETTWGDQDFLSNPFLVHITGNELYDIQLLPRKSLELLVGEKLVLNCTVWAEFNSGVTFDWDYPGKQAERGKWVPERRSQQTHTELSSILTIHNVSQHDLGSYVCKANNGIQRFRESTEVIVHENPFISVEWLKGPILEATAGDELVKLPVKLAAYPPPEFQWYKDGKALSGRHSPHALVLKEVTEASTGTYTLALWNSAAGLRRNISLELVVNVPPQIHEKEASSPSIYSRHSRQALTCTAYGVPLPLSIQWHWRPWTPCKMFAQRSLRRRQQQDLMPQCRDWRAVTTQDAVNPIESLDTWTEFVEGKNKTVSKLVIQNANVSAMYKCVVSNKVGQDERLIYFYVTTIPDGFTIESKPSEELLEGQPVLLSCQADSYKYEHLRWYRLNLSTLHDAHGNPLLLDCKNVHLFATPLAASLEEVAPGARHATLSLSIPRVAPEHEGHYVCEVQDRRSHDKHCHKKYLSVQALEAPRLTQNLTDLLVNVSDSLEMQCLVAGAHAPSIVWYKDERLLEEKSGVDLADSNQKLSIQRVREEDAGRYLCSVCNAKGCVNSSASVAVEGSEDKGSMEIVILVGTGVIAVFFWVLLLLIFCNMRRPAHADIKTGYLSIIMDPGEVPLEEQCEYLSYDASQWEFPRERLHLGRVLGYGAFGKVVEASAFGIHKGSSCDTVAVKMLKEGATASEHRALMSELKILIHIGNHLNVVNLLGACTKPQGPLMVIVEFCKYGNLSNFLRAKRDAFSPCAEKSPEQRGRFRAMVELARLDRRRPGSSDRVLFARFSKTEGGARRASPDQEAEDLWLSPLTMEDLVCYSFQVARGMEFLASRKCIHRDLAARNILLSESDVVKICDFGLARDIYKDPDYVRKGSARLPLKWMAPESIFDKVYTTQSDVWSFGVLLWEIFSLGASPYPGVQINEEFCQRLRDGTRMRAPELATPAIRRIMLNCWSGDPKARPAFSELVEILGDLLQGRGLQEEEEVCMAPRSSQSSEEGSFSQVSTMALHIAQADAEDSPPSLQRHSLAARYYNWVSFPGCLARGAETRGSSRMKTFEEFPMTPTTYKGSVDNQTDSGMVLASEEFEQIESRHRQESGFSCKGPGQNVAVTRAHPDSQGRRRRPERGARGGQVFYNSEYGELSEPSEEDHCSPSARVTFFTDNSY
# Sequence of Epidermal growth factor receptor (P00533 whole entry): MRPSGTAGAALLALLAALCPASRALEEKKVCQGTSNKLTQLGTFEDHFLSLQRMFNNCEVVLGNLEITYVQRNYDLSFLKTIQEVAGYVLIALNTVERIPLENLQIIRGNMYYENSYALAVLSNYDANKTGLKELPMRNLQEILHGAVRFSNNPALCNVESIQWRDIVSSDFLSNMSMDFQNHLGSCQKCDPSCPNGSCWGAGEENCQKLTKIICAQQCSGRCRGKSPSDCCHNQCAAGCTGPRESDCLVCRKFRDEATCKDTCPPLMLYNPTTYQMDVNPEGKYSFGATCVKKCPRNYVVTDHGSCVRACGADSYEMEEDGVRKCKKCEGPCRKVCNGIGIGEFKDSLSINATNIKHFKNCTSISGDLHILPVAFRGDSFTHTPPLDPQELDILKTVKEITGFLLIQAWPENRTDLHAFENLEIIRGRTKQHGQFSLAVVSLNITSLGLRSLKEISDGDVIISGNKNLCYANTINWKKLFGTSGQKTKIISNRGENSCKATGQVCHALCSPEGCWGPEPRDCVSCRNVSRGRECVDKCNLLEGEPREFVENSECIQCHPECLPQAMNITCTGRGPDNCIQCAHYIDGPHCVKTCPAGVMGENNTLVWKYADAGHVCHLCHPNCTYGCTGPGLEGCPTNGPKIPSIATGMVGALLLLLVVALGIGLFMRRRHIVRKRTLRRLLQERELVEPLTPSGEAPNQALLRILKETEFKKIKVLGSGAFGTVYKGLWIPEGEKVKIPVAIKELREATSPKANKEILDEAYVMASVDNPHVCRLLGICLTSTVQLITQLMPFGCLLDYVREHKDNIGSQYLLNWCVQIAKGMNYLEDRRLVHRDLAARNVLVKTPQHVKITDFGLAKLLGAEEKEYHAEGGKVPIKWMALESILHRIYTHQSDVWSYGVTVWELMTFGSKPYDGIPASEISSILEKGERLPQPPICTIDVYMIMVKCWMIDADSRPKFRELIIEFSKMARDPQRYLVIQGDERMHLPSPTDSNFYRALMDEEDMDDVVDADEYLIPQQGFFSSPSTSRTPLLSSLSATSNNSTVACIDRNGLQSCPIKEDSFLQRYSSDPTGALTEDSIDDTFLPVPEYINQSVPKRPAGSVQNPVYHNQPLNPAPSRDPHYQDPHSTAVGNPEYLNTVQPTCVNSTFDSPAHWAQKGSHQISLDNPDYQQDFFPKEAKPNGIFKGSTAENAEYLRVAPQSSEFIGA
# Sequence of Vascular endothelial growth factor receptor 1 (P17948 whole entry): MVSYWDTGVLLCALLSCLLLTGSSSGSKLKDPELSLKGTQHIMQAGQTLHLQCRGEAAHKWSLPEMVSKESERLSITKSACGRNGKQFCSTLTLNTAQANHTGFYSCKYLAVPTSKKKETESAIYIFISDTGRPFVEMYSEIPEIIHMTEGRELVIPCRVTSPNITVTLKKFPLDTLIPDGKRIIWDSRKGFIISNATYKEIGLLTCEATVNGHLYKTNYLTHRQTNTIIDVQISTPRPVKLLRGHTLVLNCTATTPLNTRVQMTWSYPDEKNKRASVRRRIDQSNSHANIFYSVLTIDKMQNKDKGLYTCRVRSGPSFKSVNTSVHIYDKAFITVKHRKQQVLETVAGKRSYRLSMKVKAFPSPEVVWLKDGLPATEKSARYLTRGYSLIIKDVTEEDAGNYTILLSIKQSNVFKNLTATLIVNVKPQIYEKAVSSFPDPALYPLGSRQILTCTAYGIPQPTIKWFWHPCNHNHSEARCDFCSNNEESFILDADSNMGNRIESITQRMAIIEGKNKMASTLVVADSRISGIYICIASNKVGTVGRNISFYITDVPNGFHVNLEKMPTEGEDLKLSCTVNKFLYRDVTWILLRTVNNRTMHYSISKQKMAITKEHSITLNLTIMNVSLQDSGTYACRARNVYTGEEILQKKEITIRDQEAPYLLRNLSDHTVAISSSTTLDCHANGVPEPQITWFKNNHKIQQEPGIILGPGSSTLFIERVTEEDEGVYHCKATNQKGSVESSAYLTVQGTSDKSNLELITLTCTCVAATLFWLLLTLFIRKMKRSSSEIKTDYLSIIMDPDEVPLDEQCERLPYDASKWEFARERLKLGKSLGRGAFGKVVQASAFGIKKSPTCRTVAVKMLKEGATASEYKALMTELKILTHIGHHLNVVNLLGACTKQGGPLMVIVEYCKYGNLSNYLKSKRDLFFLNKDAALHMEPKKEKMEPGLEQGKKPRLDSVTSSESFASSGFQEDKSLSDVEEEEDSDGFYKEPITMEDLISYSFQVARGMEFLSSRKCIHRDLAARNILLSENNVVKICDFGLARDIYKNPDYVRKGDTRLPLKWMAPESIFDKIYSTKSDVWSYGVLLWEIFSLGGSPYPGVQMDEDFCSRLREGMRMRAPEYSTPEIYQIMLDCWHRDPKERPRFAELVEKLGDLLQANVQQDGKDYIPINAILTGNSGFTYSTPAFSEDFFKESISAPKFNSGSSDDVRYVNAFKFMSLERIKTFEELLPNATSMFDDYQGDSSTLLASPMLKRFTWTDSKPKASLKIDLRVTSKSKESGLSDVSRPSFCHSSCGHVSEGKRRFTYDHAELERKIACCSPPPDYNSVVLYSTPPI
structure (smiles),measurement,setting,value
"NC(=O)c1ccccc1Sc1ccc2c(/C=C/c3cnn(CCCN4CCCC4)c3)n[nH]c2c1 [US20260049071, No. I-44]",pIC50,[1],8.00 to 9.00
same,pIC50,[2],7.00 to 8.00
same,IC50,[3],in the range around 33000 nM
